In data set [1] the test system is vincristine resistant murine leukemia P388/VCR. Put plainly: In vivo evaluation of MDR-1 reversal agents against vincristine resistant murine leukemia P388/VCR implanted IP in CDF1 mice. The conditions noted are these: vincristine 0.2 + compound 6.3 mg/kg, days 1-7, IP. On the procedure:
Tumor cell ascites are harvested 5-7 days later. For drug testing, groups of 10-15 CDF1 mice (DBA/2×Balb/cF1 hybrids; Charles River Laboratories, Inc) are injected IP with 0.5 ml of diluted ascitic fluid containing 1×10^6 viable P388/VCR tumor cells. […] Drugs are administered once daily, by the IP, intravenous (IV) or oral route, starting one day after tumor implantation and using a variety of treatment schedules. Mice are weighed periodically, survival is recorded for 30 days post tumor implantation, and Mean survival times are calculated for all groups of mice. Statistical analysis of Mean survival times is carried out using the Student t-test.

Data set [2] concerns human epidermoid carcinoma KB/8.5. Put plainly: In vivo evaluation of MDR-1 reversal agents against human epidermoid carcinoma KB/8.5 implanted SC in athymic nude mice. Set-up: species or system human (tumor in athymic nude mice). The method, then:
The multiple drug resistant human epidermoid carcinoma KB/8.5 is propagated in medium containing colchicine (10 nanograms/ml) to maintain drug resistance. Colchicine is removed from the medium, for two cell passages, prior to subcutaneous (SC) implant of 8×10^6 KB/8.5 tumor cells into athymic "nude" mice (Harlan Sprague Dawley). […] Individual mouse tumor mass and mean tumor mass for each treatment group is determined on Day +14 and Day +21 of the test period. For each treatment group, the Relative Tumor Growth, RTG, is calculated as follows: [formula]
Statistical analysis of Log Relative Tumor Growth is carried out using the Student t-test. Transformation of the data from absolute mean tumor mass (mgs tumor mass) to Log Relative Tumor Growth prior to statistical analysis has two beneficial effects:
1) it corrects the data for differences in mean tumor mass of the different treatment groups at the start of the test period (Day 0); and
2) the Log transformation of the data more adequately reflects the exponential growth pattern of the SC tumors and makes the use of the Student t-test more appropriate.

The mark [3] stands for this setting: doxorubicin 8 mg/kg IV + compound 25 mg/kg/dose SC at -2 h and +2 h.
[4] abbreviates: doxorubicin 8 mg/kg IV + compound 50 mg/kg/dose SC at -2 h and +2 h.
[5] abbreviates: doxorubicin 8 mg/kg IV + compound 100 mg/kg/dose SC at -2 h and +2 h.
[6] abbreviates: doxorubicin 8 mg/kg IV + compound 150 mg/kg/dose SC at -2 h and +2 h.
Where [7] appears, read: doxorubicin 8 mg/kg IV + compound […] SC at -2 h and +2 h.
Setting [8] is: doxorubicin 8 mg/kg IV + compound 200 mg/kg/dose SC at -2 h and +2 h.
Where [9] appears, read: doxorubicin 8 mg/kg IV + compound 200 mg/kg/dose SC x2.

The source of these data is US5639887A, “MDR reversal agents” (priority 1995, dated 1997).

Structures can show the parent of a compound that is named as a salt.

For the compound `COc1ccc(C(C#N)(CCN2CCc3cc(OC)c(OC)cc3C2)Sc2ccc(C)cc2)cc1OC` (stereo not drawn) [Example 9, α-(3,4-Dimethoxyphenyl)-3,4-dihydro-6,7-dimethoxy-α-[(4-methylphenyl)thio]-2(1H]-isoquinolinebutanenitrile], the MST in data set [1] was 16.4 days. Also, the “% ILS” value in data set [1] (vs vincristine alone) is given as “+10%”.

Turning to `COc1ccc(C(C#N)(CCCCCN2Cc3cc(OC)c(OC)cc3C2)Sc2ccc(C)cc2)cc1OC.Cl` (stereo not drawn) [Example 27, α-(3,4-Dimethoxyphenyl)-1,3-dihydro-5,6-dimethoxy-α-[(4-methylphenyl)thio]-2H-isoindole-2-heptanenitrile hydrochloride], the “Relative Tumor Growth Day 21” value in data set [2] (setting [3]) was 10.30; in data set [2] (setting [4]) it was 9.55; in data set [2] (setting [5]), 6.39; in data set [2] (setting [6]), “Toxic”; in data set [2] (setting [7]), 9.66. Also, in data set [2] (setting [6]), the “Relative Tumor Growth Day 14” value is listed as “Toxic”.

With `COc1ccc(C(C#N)(CCCCCN2CCc3cc(OC)c(OCCCl)cc3C2)Sc2ccc(C)cc2)cc1OC` (stereo not drawn) [Example 32, 7-(2-Chloroethoxy)-α-(3,4-dimethoxyphenyl)-3,4-dihydro 6-methoxy-α-[(4-methylphenyl)thio]-2(1H)-isoquinoline heptanenitrile], the “Relative Tumor Growth Day 21” value came to 11.30 in data set [2] (setting [3]) and 19.93 in data set [2] (setting [7]).

Turning to `COc1ccc(C(CCCCCN2CCc3cc4c(cc3C2)OCO4)Sc2ccc(C)cc2)cc1OC` (stereo not shown) [Example 47], the “Relative Tumor Growth Day 21” value in data set [2] (setting [3]) was determined as 9.73; in data set [2] (setting [4]), 16.54; in data set [2] (setting [5]), 10.09; in data set [2] (setting [8]), 11.04; in data set [2] (setting [7]), 17.53.

In the case of `COc1ccc(C(CCCCCCN2Cc3cc(OC)c(OC)cc3C2)Sc2ccc(C)cc2)cc1OC` (stereo not shown) [Example 49, 2-[7-(3,4-Dimethoxyphenyl]-7-[(4-methylphenyl]thio]-beptyl]-2,3-dihydro-5,6-dimethoxy-1H-isotndole], the “Relative Tumor Growth Day 21” value in data set [2] (setting [3]) was found to be 5.04; in data set [2] (setting [7]) it was 6.41.

Take `COc1ccc(C(CCCCCCN2CCc3cc(OC)c(OC)cc3C2)Sc2ccc(C)cc2)cc1OC` (stereo not shown) [Example 50, 2-[7-(3,4-Dimethoxyphenyl)-7-[(4-methylphenyl)thio]-heptyl]-1,2,3,4-tetrahydro-6,7-dimethoxyisoquinoline]: the “Relative Tumor Growth Day 21” value in data set [2] (setting [3]) was 7.86; in data set [2] (setting [4]), 8.76; in data set [2] (setting [5]), 7.08; in data set [2] (setting [8]), 6.87; in data set [2] (setting [7]), 10.30.

Turning to `COc1ccc(CC2c3cc(OC)c(OC)cc3CCN2CCCCCC(C#N)(Sc2ccc(C)cc2)c2ccc(OC)c(OC)c2)cc1OC` (stereo not drawn) [Example 55, α-(3,4-Dimethoxyphenyl)-1-[(3,4-dimethoxyphenyl)-methyl]-3,4-dihydro-6,7-dimethoxy-α-[(4-methylphenyl)-thio]-2(1H)-isoquinolineheptanenitrile], the results for the “Relative Tumor Growth Day 21” value in data set [2] (setting [4]), in data set [2] (setting [5]) and in data set [2] (setting [8]) were 12.20, 12.37 and 7.15, respectively.

`COc1ccc(C(CCCCCN2CCc3cc(OC)c(OC)cc3C2)SC2CCCCC2)cc1OC` (stereo not shown) [Example 61, 2-[6-(Cyclohexylthio)-6-(3,4-dimethoxyphenyl)hexyl]-1,2,3,4-tetrahydro-6,7-dimethoxyisoquinoline]: the “Relative Tumor Growth Day 21” value in data set [2] (setting [4]) is reported as 8.66; in data set [2] (setting [5]), 6.86; in data set [2] (setting [7]) it was 8.88.

Turning to `COc1ccc(C(C#N)(CCCCCN2CCc3cc(OC)c(OC)cc3C2)SC2CCCCC2)cc1OC` (stereo not drawn) [Example 62, α-(Cyclohexylthio)-α-(3,4-dimethoxyphenyl)-3,4-dihydro6,7-dimethoxy-2(1H)-isoquinolineheptane nitrile], the “Relative Tumor Growth Day 21” value is recorded as 9.47 in data set [2] (setting [4]), 6.08 in data set [2] (setting [5]) and 10.17 in data set [2] (setting [7]). Moreover, the “toxicity remark (tox), Day 14” value in data set [2] (setting [9]) is “tox”. The “toxicity remark (tox), Day 21” value in data set [2] (setting [9]) is “tox”.

As to `COc1ccc(C(CCCCCN2CCc3cc(OC)c(OC)cc3C2)SC(C)(C)C)cc1OC` (stereo not shown) [Example 66, 2-[6-(3,4-Dimethoxyphenyl)-6[(1,1-dimethylethyl)thio]hexyl]-1,2,3,4-tetrahydro-6,7-dimethoxyisoquinoline], the “Relative Tumor Growth Day 21” value amounted to 8.17 in data set [2] (setting [5]) and 7.07 in data set [2] (setting [8]).

For `COc1ccc(C(CCCCCCN2CCc3cc(OC)c(OC)c(OC)c3C2)Sc2ccc(C)cc2)cc1OC` (stereo not shown) [Example 67, 2-[7-(3,4-Dimethoxyphenyl)-7-[(4-methylphenyl)thio]-heptyl]-1,2,3,4-tetrahydro-6,7,8-trimethoxyisoquinoline], the “Relative Tumor Growth Day 21” value in data set [2] (setting [4]) was 11.52; in data set [2] (setting [5]), 7.76; in data set [2] (setting [8]), 8.55; in data set [2] (setting [7]), 9.81.

Turning to `COc1ccc(C(CCCCCCN2CCc3cc(OC)c(OC)cc3C2)Sc2ccc(C)cc2)cc1O` (stereo not shown) [Example 72, 5-[7-(3,4-Dihydro-6,7-dimethoxy-2(1H)-isoquinolinyl)-1[(4-methylphenyl)thio]heptyl]-2-methoxyphenol], the “Relative Tumor Growth Day 21” value in data set [2] (setting [7]) is listed as 9.58.

As to `COc1cc2c(cc1OC)CN(CCCCCCC(Sc1ccc(C)cc1)c1ccc(OC)c(OCCn3ccnc3)c1)CC2` (stereo not shown) [Example 74], the “Relative Tumor Growth Day 21” value was found to be 9.11 in data set [2] (doxorubicin 8 mg/kg IV + compound 25 mg/kg/dose SC at -2 h and +2 h, listed as Ex-74); 9.18 in data set [2] (doxorubicin 8 mg/kg IV + compound 50 mg/kg/dose SC at -2 h and +2 h, listed as Ex-74); 9.00 in data set [2] (doxorubicin 8 mg/kg IV + compound […] SC at -2 h and +2 h, listed as Ex-74).

As to `COc1cc2c(cc1OC)CN(CCCCCCC(Sc1ccc(C)cc1)c1ccc(OC)c(OCCn3ccnc3)c1)CC2` (stereo not shown) [Example 75, 1,2,3,4-Tetrahydro-2-[7-[3-[2-(1H-imidazol-1-yl)-ethoxy]-4-methoxyphenyl]-7-[(4-methylphenvl]thio]-heptyl-6,7-dimethoxyisoquinolinedihydrochloride], the “Relative Tumor Growth Day 21” value in data set [2] (doxorubicin 8 mg/kg IV + compound 25 mg/kg/dose SC at -2 h and +2 h, listed as Ex-75, dihydrochloride) turned out to be 11.05; in data set [2] (doxorubicin 8 mg/kg IV + compound 50 mg/kg/dose SC at -2 h and +2 h, listed as Ex-75, dihydrochloride), 9.12; in data set [2] (doxorubicin 8 mg/kg IV + compound 100 mg/kg/dose SC at -2 h and +2 h, listed as Ex-75, dihydrochloride) it was 6.74; in data set [2] (doxorubicin 8 mg/kg IV + compound 200 mg/kg/dose SC at -2 h and +2 h, listed as Ex-75, dihydrochloride), 7.70; in data set [2] (doxorubicin 8 mg/kg IV + compound […] SC at -2 h and +2 h, listed as Ex-75, dihydrochloride), 14.21.

In the case of `CCC(CCCCCN1CCc2cc(OC)c(OC)cc2C1)(Sc1ccc(C)cc1)c1ccc(OC)c(OC)c1` (stereo not shown) [Example 78, 2-[6-(3,4-Dimethoxyphenyl)-6-[(4-methylphenyl)thio]-octyl]-1,2,3,4-tetrahydro-6,7-dimethoxyisoquinoline], the “Relative Tumor Growth Day 21” value in data set [2] (setting [3]) is listed as 10.14; in data set [2] (setting [7]), 10.27.

For `COc1ccc(C(C#N)(CCCCCN2Cc3cc(Cl)c(Cl)cc3C2)Sc2ccc(C)cc2)cc1OC` (stereo not shown) [Example 81], the “Relative Tumor Growth Day 21” value in data set [2] (setting [7]) worked out at 9.52.

Turning to `COc1cc2c(cc1OC)CN(CCCCCC(Sc1ccc(C)cc1)c1ccc3c(c1)OCO3)CC2` (stereo not shown) [Example 89], the “Relative Tumor Growth Day 21” value was 8.02 in data set [2] (setting [3]); 9.40 in data set [2] (setting [4]); 11.04 in data set [2] (setting [5]); 6.04 in data set [2] (setting [8]); 10.70 in data set [2] (setting [7]).

`COc1cc2c(cc1OC)CN(CCCCCC(Sc1ccc(C)cc1)c1ccc(OC(F)(F)F)cc1)CC2` (stereo not shown) [Example 92, 1,2,3,4-Tetrahydro-6,7-dimethoxy-2-[6-[(4-methyl-phenyl]thio]-6-[trifluoromethoxy)phenyl]hexylisoquinoline]: the “Relative Tumor Growth Day 21” value in data set [2] (setting [3]) is recorded as 12.05; in data set [2] (setting [4]), 11.75; in data set [2] (setting [5]), 10.48; in data set [2] (setting [8]) it was 8.71; in data set [2] (setting [7]), 12.75.
